From US11802131B2, “Glutarimides for medical treatment” (C4 Therapeutics, Inc., priority 2017, dated 2023)

target: hCereblon(M1-L442)_hDDB1(M1-H1140) (Homo sapiens (Human), UniProt Q96SW2); assay: Fluorescence direct binding protocol (tryptophan fluorescence titration); conditions: 20° C., excited at 280 nm, recorded at 340 nm, assay buffer 50 mM Hepes 7.4 200 mM NaCl; read-out: Fluorescence h-Cereblon_DDB1 Mean Kd_EQ
Procedure: Fluorescence Direct Binding Protocol
Determination of the affinities of compounds to protein containing one or more tryptophan is measurable by monitoring the fluorescence emission in direct mode. The measurements depending on the protein available amounts are performed either manually in a cuvette on ISS-PC1 photon counting spectrofluorometer or automatically in well plates on a fluorescence plate reader device. Fluorescence titrations are performed at 20° C. in the chosen binding assay buffer by using a defined constant protein concentration against ligand concentration variations. Small aliquots of known ligand concentration solubilized in DMSO were added and the fluorescence, excited at 280 nm, was recorded at 340 nm. The fluorescence intensity was corrected for protein dilution and for the filter effect (Birdsall et al.^72).
1) Optimization of measurement parameters to minimize protein consumption and to minimize the dilution effect and the DMSO content
2) Titration measurements of the protein against ligand by at least 12 titration steps to obtain a good s-curve fit
3) Repeat the same titration measurements with the ligand alone to enable correction
4) Check the stability of the protein once by titration against DMSO alone
5) Determination of the molar extinction coefficients of the ligand at 280 and 340 nm with help of an UV-spectrophotometer
6) Use Excel template for the correction of the measured raw data
7) Use GraphPad Prism software for the quadratic binding fit and the KD evaluation.

Sequence of hCereblon(M1-L442)_hDDB1(M1-H1140) (Q96SW2 whole entry): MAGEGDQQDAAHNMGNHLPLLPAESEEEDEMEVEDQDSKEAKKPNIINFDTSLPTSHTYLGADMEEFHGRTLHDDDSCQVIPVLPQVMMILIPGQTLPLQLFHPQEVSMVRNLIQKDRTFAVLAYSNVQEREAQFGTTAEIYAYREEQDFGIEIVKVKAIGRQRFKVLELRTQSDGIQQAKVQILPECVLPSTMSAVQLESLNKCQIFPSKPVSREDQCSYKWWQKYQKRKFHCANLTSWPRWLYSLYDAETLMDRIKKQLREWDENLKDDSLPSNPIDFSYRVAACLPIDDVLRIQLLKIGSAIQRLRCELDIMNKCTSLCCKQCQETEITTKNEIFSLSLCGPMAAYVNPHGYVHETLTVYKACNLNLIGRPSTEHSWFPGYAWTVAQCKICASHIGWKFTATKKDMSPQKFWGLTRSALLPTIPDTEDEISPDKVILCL
Sequence of hCereblon(M1-L442)_hDDB1(M1-H1140) (Q16531 whole entry partner): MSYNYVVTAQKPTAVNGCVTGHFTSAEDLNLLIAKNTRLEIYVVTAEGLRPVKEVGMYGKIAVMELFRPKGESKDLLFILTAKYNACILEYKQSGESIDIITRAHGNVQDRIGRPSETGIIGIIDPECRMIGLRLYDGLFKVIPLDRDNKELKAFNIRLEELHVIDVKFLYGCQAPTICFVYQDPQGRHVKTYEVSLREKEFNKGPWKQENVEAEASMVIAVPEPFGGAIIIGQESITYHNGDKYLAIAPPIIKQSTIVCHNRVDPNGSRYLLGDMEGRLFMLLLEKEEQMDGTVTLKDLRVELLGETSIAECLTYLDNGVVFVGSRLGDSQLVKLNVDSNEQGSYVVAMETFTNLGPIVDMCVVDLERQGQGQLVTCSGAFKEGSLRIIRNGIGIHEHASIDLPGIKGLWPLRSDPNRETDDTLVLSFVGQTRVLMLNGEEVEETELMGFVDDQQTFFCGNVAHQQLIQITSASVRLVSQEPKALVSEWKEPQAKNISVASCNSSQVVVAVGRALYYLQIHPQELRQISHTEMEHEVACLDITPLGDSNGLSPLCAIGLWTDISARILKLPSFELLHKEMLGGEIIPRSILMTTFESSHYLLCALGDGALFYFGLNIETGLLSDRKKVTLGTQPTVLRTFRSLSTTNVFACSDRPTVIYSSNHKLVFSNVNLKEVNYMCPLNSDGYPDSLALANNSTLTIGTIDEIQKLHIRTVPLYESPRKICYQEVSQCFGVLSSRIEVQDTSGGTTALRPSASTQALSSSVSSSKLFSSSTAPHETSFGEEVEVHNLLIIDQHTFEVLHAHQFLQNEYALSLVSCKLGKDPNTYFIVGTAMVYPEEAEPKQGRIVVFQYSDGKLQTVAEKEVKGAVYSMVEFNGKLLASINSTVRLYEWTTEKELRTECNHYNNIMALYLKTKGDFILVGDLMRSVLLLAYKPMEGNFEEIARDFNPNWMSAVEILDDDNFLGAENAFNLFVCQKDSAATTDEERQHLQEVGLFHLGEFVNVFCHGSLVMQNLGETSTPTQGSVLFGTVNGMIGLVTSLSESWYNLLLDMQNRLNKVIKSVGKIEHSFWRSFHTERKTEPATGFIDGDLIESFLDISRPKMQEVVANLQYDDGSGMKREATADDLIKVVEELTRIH

First: O=C1CC[C@@H](NC(=O)[C@@H]2CCCc3ccccc32)C(=O)N1 [Example 45, (1R)-N-[(3R)-2,6-Dioxopiperidin-3-yl]-1,2,3,4-tetrahydronaphthalene-1-carboxamide]
Second: O=C1CC[C@H](NC(=O)[C@@H]2CCCc3ccccc32)C(=O)N1 [Example 46, (1R)-N-[(3S)-2,6-Dioxopiperidin-3-yl]-1,2,3,4-tetrahydronaphthalene-1-carboxamide]
The Kd of the first is 9.8-fold lower: 4 nM for the first, 39 nM for the second. The first binds more tightly here.

`O=C1CC[C@H](NC(=O)c2cnn3ccccc23)C(=O)N1` [Example 47, (S)-N-(2,6-Dioxopiperidin-3-yl)pyrazolo[1,5-a]pyridine-3-carboxamide] and `O=C1CC[C@@H](NC(=O)c2cnn3ccccc23)C(=O)N1` [Example 48, (R)-N-(2,6-Dioxopiperidin-3-yl)pyrazolo[1,5-a]pyridine-3-carboxamide] cannot be ordered by Kd: under 1 nM for the first, under 1 nM for the second.

Going from `O=C1CC[C@@H](NC(=O)c2n[nH]c3ccccc23)C(=O)N1` [Example 49, (R)-N-(2,6-Dioxopiperidin-3-yl)-1H-indazole-3-carboxamide] to `O=C1CC[C@H](NC(=O)c2ncc3ccccn23)C(=O)N1` [Example 50, (S)-N-(2,6-Dioxopiperidin-3-yl)imidazo[1,5-a]pyridine-3-carboxamide], the Kd rises from under 1 nM to 4 nM. The first binds more tightly here.

First: O=C1CC[C@@H](NC(=O)c2ncc3ccccn23)C(=O)N1 [Example 51, (R)-N-(2,6-Dioxopiperidin-3-yl)imidazo[1,5-a]pyridine-3-carboxamide]
Second: O=C1CC[C@H](NC(=O)c2cnc3ccccn23)C(=O)N1 [Example 54, (S)-N-(2,6-Dioxopiperidin-3-yl)imidazo[1,2-a]pyridine-3-carboxamide]
The Kd of the first is 3-fold higher: 3 nM for the first, 1 nM for the second. The second binds more tightly here.

First: O=C1CC[C@H](NC(=O)c2ccc3ccccn23)C(=O)N1 [Example 52, (S)-N-(2,6-Dioxopiperidin-3-yl)indolizine-3-carboxamide]
Second: O=C1CC[C@@H](NC(=O)c2ccc3ccccn23)C(=O)N1 [Example 53, (R)-N-(2,6-Dioxopiperidin-3-yl)indolizine-3-carboxamide]
The Kd of the first is 3-fold higher: 6 nM for the first, 2 nM for the second.

Compared with `O=C1CC[C@@H](NC(=O)c2cnc3ccccn23)C(=O)N1` [Example 55, (R)-N-(2,6-Dioxopiperidin-3-yl)imidazo[1,2-a]pyridine-3-carboxamide], `O=C1CC[C@H](NC(=O)c2cnn3cccnc23)C(=O)N1` [Example 56, (S)-N-(2,6-Dioxopiperidin-3-yl)pyrazolo[1,5-a]pyrimidine-3-carboxamide] is higher in Kd: under 1 nM for the first, 8 nM for the second. The first binds more tightly here.

First: O=C1CC[C@@H](NC(=O)c2cnn3cccnc23)C(=O)N1 [Example 57, (R)-N-(2,6-Dioxopiperidin-3-yl)pyrazolo[1,5-a]pyrimidine-3-carboxamide]
Second: O=C1CC[C@H](NC(=O)Cc2cccnc2)C(=O)N1 [Example 61, (S)-N-(2,6-Dioxopiperidin-3-yl)-2-(pyridin-3-yl)acetamide]
The Kd of the first is 140-fold lower: 7 nM for the first, 967 nM for the second. The first binds more tightly here.

`CN(C(=O)N1CCc2ccccc21)C1CCC(=O)NC1=O` (centres unmarked) [Example 58, N-(2,6-Dioxopiperidin-3-yl)-N-methylindoline-1-carboxamide] and `CN(C(=O)N1CCc2ccccc21)[C@H]1CCC(=O)NC1=O` [Example 59, (S)-N-(2,6-Dioxopiperidin-3-yl)-N-methylindoline-1-carboxamide] are within 1.5-fold of each other in Kd: 22 nM for the first, 20 nM for the second.

`CN(C(=O)N1CCc2ccccc21)[C@@H]1CCC(=O)NC1=O` [Example 60, (R)-N-(2,6-Dioxopiperidin-3-yl)-N-methylindoline-1-carboxamide] and `CN(C(=O)N1CCc2cccnc21)C1CCC(=O)NC1=O` (centres unmarked) [Example 62, N-(2,6-Dioxopiperidin-3-yl)-N-methyl-2,3-dihydro-1H-pyrrolo[2,3-b]pyridine-1-carboxamide] are within 1.5-fold of each other in Kd: 30 nM for the first, 29 nM for the second.

Going from `O=C1CC[C@@H](NC(=O)Cc2cccnc2)C(=O)N1` [Example 63, (R)-N-(2,6-Dioxopiperidin-3-yl)-2-(pyridin-3-yl)acetamide] to `O=C1CC[C@@H](NC(=O)N2CCCc3cccnc32)C(=O)N1` [Example 64, (R)-N-(2,6-Dioxopiperidin-3-yl)-3,4-dihydro-1,8-naphthyridine-1(2H)-carboxamide], the Kd rises from 19 nM to 641 nM (34-fold). The first binds more tightly here.
